Assay results taken from US12673975B2, “Cyclic peptide, cell scaffold material, cell separating material, and medium” (FUJIFILM Corporation, priority 2019, dated 2026).
Like-named read-outs stand apart in the source and are kept apart here. Starred links: 1 amine or outer side, 2 acyl side, 3 side chain; linkers in the order of their positions; H or OH if unused. Positions of bridges follow the written chain, without caps; N, C: chain ends. Non-standard residues stand in square brackets, D forms with d. Residues, ends and D or L forms follow the SMILES beside them. hCys = N[C@@H](CCS)C(=O)O; Dab = NCC[C@H](N)C(=O)O; X1 = O=C(C[*:2])[*:1]; X2 = O=C(C[*:1])[*:2]

What was measured:
[1] = Evaluation of molecule stability (alkali treatment, residual rate by LC/MS); type: physicochemical; details: for Performance evaluation: Stability (residual rate of cyclic peptide after alkali treatment): 500 μM peptide aqueous solution plus equivalent of 1 M sodium hydroxide, 15° C., 3 hours, LC/MS peak area; for Stability (molecule stability, residual rate of the cyclic peptide rank): alkali treatment, residual rate by LC/MS
Method in brief: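 Stability read as percent of summed LC/MS peak area remaining versus untreated peptide (C18, 45 °C, 10 mM ammonium formate pH 3, ESI positive/negative). Treatment: 500 μM peptide in water plus an equivalent of 1 M NaOH, 15 °C for 3 hours.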

human integrin αvβ5 = human integrin αvβ5 (Homo sapiens, UniProt P06756+P18084); assay: Evaluation of integrin binding property (surface plasmon resonance, Biacore 3000, immobilized cyclic peptide)
Chain of human integrin αvβ5 (P06756 31-1048): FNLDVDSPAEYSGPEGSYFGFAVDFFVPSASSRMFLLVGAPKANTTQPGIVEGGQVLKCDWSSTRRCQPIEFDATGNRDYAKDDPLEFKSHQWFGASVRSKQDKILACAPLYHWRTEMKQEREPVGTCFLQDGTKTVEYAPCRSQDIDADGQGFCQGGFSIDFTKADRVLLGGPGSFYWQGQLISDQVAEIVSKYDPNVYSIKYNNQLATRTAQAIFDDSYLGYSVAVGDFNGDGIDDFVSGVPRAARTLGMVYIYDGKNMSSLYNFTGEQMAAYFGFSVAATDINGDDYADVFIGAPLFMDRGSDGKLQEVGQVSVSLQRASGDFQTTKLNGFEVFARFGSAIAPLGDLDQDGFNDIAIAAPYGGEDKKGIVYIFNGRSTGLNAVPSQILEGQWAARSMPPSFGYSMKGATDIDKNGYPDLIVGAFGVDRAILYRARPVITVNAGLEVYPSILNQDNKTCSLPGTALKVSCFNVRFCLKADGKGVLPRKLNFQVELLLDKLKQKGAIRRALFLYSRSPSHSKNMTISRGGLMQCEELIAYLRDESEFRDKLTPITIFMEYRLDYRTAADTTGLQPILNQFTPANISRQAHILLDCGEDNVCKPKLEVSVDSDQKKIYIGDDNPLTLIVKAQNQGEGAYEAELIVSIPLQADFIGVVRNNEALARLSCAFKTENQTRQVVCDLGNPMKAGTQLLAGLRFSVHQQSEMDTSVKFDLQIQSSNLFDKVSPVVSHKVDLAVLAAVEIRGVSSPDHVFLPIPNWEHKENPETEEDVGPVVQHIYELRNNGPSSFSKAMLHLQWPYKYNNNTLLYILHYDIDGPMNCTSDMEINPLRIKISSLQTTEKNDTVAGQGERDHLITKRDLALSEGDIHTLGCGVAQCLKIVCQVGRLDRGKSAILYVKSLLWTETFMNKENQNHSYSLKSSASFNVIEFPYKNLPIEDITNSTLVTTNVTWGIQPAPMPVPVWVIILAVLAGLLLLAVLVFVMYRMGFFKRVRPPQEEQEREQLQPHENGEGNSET
Chain of human integrin αvβ5 (P18084 24-799): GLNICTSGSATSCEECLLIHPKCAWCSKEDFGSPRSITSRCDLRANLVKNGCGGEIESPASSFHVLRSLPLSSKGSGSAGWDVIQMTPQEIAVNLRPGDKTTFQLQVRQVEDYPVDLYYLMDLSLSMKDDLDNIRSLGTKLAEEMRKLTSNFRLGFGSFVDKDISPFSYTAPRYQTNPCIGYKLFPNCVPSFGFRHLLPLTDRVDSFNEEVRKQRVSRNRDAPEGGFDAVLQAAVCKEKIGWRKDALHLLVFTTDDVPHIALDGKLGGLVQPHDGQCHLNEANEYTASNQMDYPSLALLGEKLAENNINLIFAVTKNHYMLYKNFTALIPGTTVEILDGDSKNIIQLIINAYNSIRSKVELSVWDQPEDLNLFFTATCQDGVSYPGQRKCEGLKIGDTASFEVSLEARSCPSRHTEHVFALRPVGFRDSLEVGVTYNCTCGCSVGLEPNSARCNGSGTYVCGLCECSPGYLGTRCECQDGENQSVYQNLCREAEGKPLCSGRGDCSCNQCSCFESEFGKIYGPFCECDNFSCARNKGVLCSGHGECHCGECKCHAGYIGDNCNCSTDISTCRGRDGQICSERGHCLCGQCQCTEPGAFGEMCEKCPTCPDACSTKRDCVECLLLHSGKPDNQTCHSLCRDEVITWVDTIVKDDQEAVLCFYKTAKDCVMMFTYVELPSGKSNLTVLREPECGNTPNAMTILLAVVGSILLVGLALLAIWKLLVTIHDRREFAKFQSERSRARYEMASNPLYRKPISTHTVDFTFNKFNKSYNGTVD
Method in brief: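 Human αvβ5 (30-1,000 nM) flowed for 10 min at 25 °C over immobilized cyclic peptide in 20 mM HEPES, 150 mM NaCl, 5 mM MgCl2, pH 7.4, followed by 30 min running buffer and 0.5 M EDTA regeneration. Dissociation constant from peptide minus unimmobilized channel, scored into standard grades.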

[2] = SPR, 25° C., HEPES buffer with 5 mM magnesium chloride, integrin 30-1,000 nM, read-out: Performance evaluation: Binding activity (dissociation constant between the cyclic peptide and human integrin αvβ5)
[3] = surface plasmon resonance, immobilized cyclic peptide, human integrin αvβ5, read-out: Binding activity (integrin binding property, dissociation constant rank)

| Kd (human integrin αvβ5; [2]) [nM] | Kd (human integrin αvβ5; [3]) [nM] | SMILES | Performance evaluation: Stability (residual rate of cyclic peptide after alkali treatment) [1] | Stability (molecule stability, residual rate of the cyclic peptide rank) [1] |
| --- | --- | --- | --- | --- |
| < 50 | – | CC(C)[C@@H]1NC(=O)[C@H](CC(=O)O)NC(=O)CNC(=O)[C@H](CCCNC(=N)N)NC(=O)[C@@H]2CCCN2C(=O)[C@H](C(C)C)NC(=O)[C@@H](NC(=O)[C@H](CCCCN)NC(=O)[C@H](CCCCN)NC(=O)[C@@H](N)CCCCN)CCSCC(=O)NCC[C@@H](C(=O)O)NC(=O)[C@H](Cc2ccccc2)NC1=O [Cyclic peptide 66, KKK-(Hcy)-VPRGDVF(Dab(acetyl))] (H-KKK[hCys]VPRGDVF[Dab]-OH; linker 4-12 via X2) | A (The residual rate of the cyclic peptide is 70% or more.) | – |
| < 50 | – | CC[C@H](C)[C@@H]1NC(=O)[C@@H](NC(=O)[C@H](C)NC(=O)[C@H](CCCCN)NC(=O)[C@H](CCCCN)NC(=O)[C@@H](N)CCCCN)CCSCC(=O)NCC[C@@H](C(=O)N[C@@H](C)C(=O)O)NC(=O)[C@H](CCCNC(=N)N)NC(=O)[C@H](Cc2ccccc2)NC(=O)[C@H](CC(N)=O)NC(=O)[C@H](CC(=O)O)NC(=O)CNC(=O)[C@H](CCCNC(=N)N)NC(=O)[C@@H]2CCCN2C1=O [Cyclic peptide 2, KKKA-(Hcy)-IPRGDNFR(Dab(acetyl))A] (H-KKKA[hCys]IPRGDNFR[Dab]A-OH; linker 5-14 via X2) | A (The residual rate of the cyclic peptide is 70% or more.) | – |
| 50 to 100 | – | N=C(N)NCCC[C@@H]1NC(=O)[C@H](Cc2ccc(O)cc2)NC(=O)[C@H](CC(N)=O)NC(=O)[C@H](CC(=O)O)NC(=O)CNC(=O)[C@H](CCCNC(=N)N)NC(=O)[C@@H]2CCCN2C(=O)[C@H](CCC(=O)O)NC(=O)[C@@H](NC(=O)CNC(=O)[C@H](CCCCN)NC(=O)[C@H](CCCCN)NC(=O)[C@@H](N)CCCCN)CCSCC(=O)NCC[C@@H](C(=O)N[C@@H](CC(=O)O)C(=O)O)NC1=O [Cyclic peptide 37, KKKG-(Hcy)-EPRGDNYR(Dab(acetyl))D] (H-KKKG[hCys]EPRGDNYR[Dab]D-OH; linker 5-14 via X2) | A (The residual rate of the cyclic peptide is 70% or more.) | – |
| < 50 | – | CC[C@H](C)[C@@H]1NC(=O)[C@H](C)NC(=O)[C@@H](NC(=O)CNC(=O)[C@H](CCCCN)NC(=O)[C@H](CCCCN)NC(=O)[C@@H](N)CCCCN)CCSCC(=O)NCC[C@@H](C(=O)N[C@@H](C)C(=O)O)NC(=O)[C@H](C)NC(=O)[C@H](CCCNC(=N)N)NC(=O)[C@H](Cc2ccccc2)NC(=O)[C@H]([C@@H](C)O)NC(=O)[C@H](CC(=O)O)NC(=O)CNC(=O)[C@H](CCCNC(=N)N)NC(=O)[C@@H]2CCCN2C1=O [Cyclic peptide 67, KKKG-(Hcy)-AIPRGDTFRA(Dab(acetyl))A] (H-KKKG[hCys]AIPRGDTFRA[Dab]A-OH; linker 5-16 via X2) | A (The residual rate of the cyclic peptide is 70% or more.) | – |
| – | < 50 | CC(C)[C@@H]1NC(=O)[C@@H](NC(=O)[C@H](C)NC(=O)[C@H](CCCCN)NC(=O)[C@H](CCCCN)NC(=O)[C@@H](N)CCCCN)CCNC(=O)CSCC[C@@H](C(=O)N[C@@H](C)C(=O)O)NC(=O)[C@H](C)NC(=O)[C@H](Cc2ccccc2)NC(=O)[C@H]([C@@H](C)O)NC(=O)[C@H](CC(=O)O)NC(=O)CNC(=O)[C@H](CCCNC(=N)N)NC(=O)[C@@H]2CCCN2C1=O [Cyclic peptide 122, KKKA(Dab(acetyl))VPRGDTFA-(Hcy)-A] (H-KKKA[Dab]VPRGDTFA[hCys]A-OH; linker 5-14 via X1) | – | A (The residual rate of the cyclic peptide is 70% or more.) |
| < 50 | – | CC[C@H](C)[C@@H]1NC(=O)[C@@H](NC(=O)[C@H](CCCCN)NC(=O)[C@H](CCCCN)NC(=O)[C@@H](N)CCCCN)CCSCC(=O)NCC[C@@H](C(=O)O)NC(=O)[C@H](CCCNC(=N)N)NC(=O)[C@H](Cc2ccccc2)NC(=O)[C@H]([C@@H](C)O)NC(=O)[C@H](CC(=O)O)NC(=O)CNC(=O)[C@H](CCCNC(=N)N)NC(=O)[C@@H]2CCCN2C1=O [Cyclic peptide 61, KKK-(Hcy)-IPRGDTFR(Dab(acetyl))] (H-KKK[hCys]IPRGDTFR[Dab]-OH; linker 4-13 via X2) | A (The residual rate of the cyclic peptide is 70% or more.) | – |
| < 50 | – | CC(C)C[C@@H]1NC(=O)[C@@H](NC(=O)CNC(=O)[C@H](CCCCN)NC(=O)[C@H](CCCCN)NC(=O)[C@@H](N)CCCCN)CCSCC(=O)NCC[C@@H](C(=O)N[C@@H](C)C(=O)O)NC(=O)[C@H](CCCNC(=N)N)NC(=O)[C@H](Cc2ccccc2)NC(=O)[C@H](CC(N)=O)NC(=O)[C@H](CC(=O)O)NC(=O)CNC(=O)[C@H](CCCNC(=N)N)NC(=O)[C@@H]2CCCN2C1=O [Cyclic peptide 27, KKKG-(Hcy)-LPRGDNFR(Dab(acetyl))A] (H-KKKG[hCys]LPRGDNFR[Dab]A-OH; linker 5-14 via X2) | A (The residual rate of the cyclic peptide is 70% or more.) | – |

More lines, now with the values behind:

| SMILES | Kd (human integrin αvβ5; [2]) [nM] | Kd (human integrin αvβ5; [3]) [nM] | Performance evaluation: Stability (residual rate of cyclic peptide after alkali treatment) [1] | Stability (molecule stability, residual rate of the cyclic peptide rank) [1] |
| --- | --- | --- | --- | --- |
| CC[C@H](C)[C@@H]1NC(=O)[C@@H](NC(=O)CNC(=O)[C@H](CCCCN)NC(=O)[C@H](CCCCN)NC(=O)[C@@H](N)CCCCN)CCSCC(=O)NCCCC[C@@H](C(=O)N[C@@H](C)C(=O)O)NC(=O)[C@H](CCCNC(=N)N)NC(=O)[C@H](Cc2ccccc2)NC(=O)[C@H]([C@@H](C)O)NC(=O)[C@H](CC(=O)O)NC(=O)CNC(=O)[C@H](CCCNC(=N)N)NC(=O)[C@@H]2CCCN2C1=O [Cyclic peptide 116, KKKG-(Hcy)-IPRGDTFR(Lys(acetyl))A] (H-KKKG[hCys]IPRGDTFRKA-OH; linker 5-14 via X2) | – | < 50 | – | A (The residual rate of the cyclic peptide is 70% or more.) |
| C[C@@H]1NC(=O)[C@H](Cc2ccccc2)NC(=O)[C@H](CO)NC(=O)[C@H](CC(=O)O)NC(=O)CNC(=O)[C@H](CCCNC(=N)N)NC(=O)[C@@H]2CCCN2C(=O)[C@H]([C@@H](C)O)NC(=O)[C@@H](NC(=O)[C@H](CCCCN)NC(=O)[C@H](CCCCN)NC(=O)[C@@H](N)CCCCN)CCSCC(=O)NCC[C@@H](C(=O)O)NC1=O [Cyclic peptide 156, KKK-(Hcy)-TPRGDSFA(Dab(acetyl))] (H-KKK[hCys]TPRGDSFA[Dab]-OH; linker 4-13 via X2) | – | 50 to 100 | – | A (The residual rate of the cyclic peptide is 70% or more.) |
| CC[C@H](C)[C@@H]1NC(=O)[C@@H](NC(=O)[C@H](CCCCN)NC(=O)[C@H](CCCCN)NC(=O)[C@@H](N)CCCCN)CCSCC(=O)NCC[C@@H](C(=O)N[C@@H](C)C(=O)O)NC(=O)[C@H](C)NC(=O)[C@H](CCCNC(=N)N)NC(=O)[C@H](Cc2ccccc2)NC(=O)[C@H](CC(N)=O)NC(=O)[C@H](CC(=O)O)NC(=O)CNC(=O)[C@H](CCCNC(=N)N)NC(=O)[C@@H]2CCCN2C1=O [Cyclic peptide 16, KKK-(Hcy)-IPRGDNFRA(Dab(acetyl))A] (H-KKK[hCys]IPRGDNFRA[Dab]A-OH; linker 4-14 via X2) | 50 to 100 | – | A (The residual rate of the cyclic peptide is 70% or more.) | – |
| CC(C)[C@@H]1NC(=O)[C@@H](NC(=O)[C@H](C)NC(=O)[C@H](CCCCN)NC(=O)[C@H](CCCCN)NC(=O)[C@@H](N)CCCCN)CCSCC(=O)NCC[C@@H](C(=O)N[C@@H](C)C(=O)O)NC(=O)[C@H](C)NC(=O)[C@H](Cc2ccccc2)NC(=O)[C@H](CO)NC(=O)[C@H](CC(=O)O)NC(=O)CNC(=O)[C@H](CCCNC(=N)N)NC(=O)[C@@H]2CCCN2C1=O [Cyclic peptide 96, KKKA-(Hcy)-VPRGDSFA(Dab(acetyl))A] (H-KKKA[hCys]VPRGDSFA[Dab]A-OH; linker 5-14 via X2) | < 50 | – | A (The residual rate of the cyclic peptide is 70% or more.) | – |
| CC(C)C[C@@H]1NC(=O)[C@@H](NC(=O)[C@H](CCCCN)NC(=O)[C@H](CCCCN)NC(=O)[C@@H](N)CCCCN)CCSCC(=O)NCC[C@@H](C(=O)O)NC(=O)[C@H](C)NC(=O)[C@H](Cc2ccccc2)NC(=O)[C@H]([C@@H](C)O)NC(=O)[C@H](CC(=O)O)NC(=O)CNC(=O)[C@H](CCCNC(=N)N)NC(=O)[C@@H]2CCCN2C1=O [Cyclic peptide 146, KKK-(Hcy)-LPRGDTFA(Dab(acetyl))] (H-KKK[hCys]LPRGDTFA[Dab]-OH; linker 4-13 via X2) | – | < 50 | – | A (The residual rate of the cyclic peptide is 70% or more.) |
| CC[C@H](C)[C@@H]1NC(=O)[C@@H](NC(=O)[C@H](C)NC(=O)[C@H](CCCCN)NC(=O)[C@H](CCCCN)NC(=O)[C@@H](N)CCCCN)CCSCC(=O)NCC[C@@H](C(=O)N[C@@H](C)C(=O)O)NC(=O)[C@H]([C@@H](C)O)NC(=O)[C@H](Cc2ccccc2)NC(=O)[C@H]([C@@H](C)O)NC(=O)[C@H](CC(=O)O)NC(=O)CNC(=O)[C@H](CCCNC(=N)N)NC(=O)[C@@H]2CCCN2C1=O [Cyclic peptide 82, KKKA-(Hcy)-IPRGDTFT(Dab(acetyl))A] (H-KKKA[hCys]IPRGDTFT[Dab]A-OH; linker 5-14 via X2) | 50 to 100 | – | A (The residual rate of the cyclic peptide is 70% or more.) | – |
